Key:
[1] = target: T1, BTK enzyme (recombinant full-length BTK, hBTK) (Homo sapiens, UniProt Q06187); assay: Btk enzyme activity assay (LANCE TR-FRET); type: biochemical; details: 50 pM hBTK, 25 μM ATP, 60 minute compound and enzyme incubation, concentration range 1 μM to 0.017 nM, read-out: BTK binding IC50
T1 construct: recombinant protein from baculovirus-transfected S 19 cells: full-length BTK, 6 HIS-tag cleaved; 6 HIS-tag (cleaved yes); made in house

[2] = test system: adenosine uptake into HeLa cells; assay: [3H]Adenosine uptake assay; type: cell-based; details: Homo sapiens; accumulation of [3H]adenosine into HeLa cells; concentration range 10 μM to 0.032 nM; read-out: ADU inhibition IC50
How it was run: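 HeLa cells (25 000/well), plated overnight, were preincubated 30 minutes at ambient temperature with compound in HBSS + 5% FBS. Ten-point titrations ran from 10 μM to 0.032 nM final. [3H]adenosine was added from a 500 nM solution for 60 minutes, and uptake was measured by scintillation proximity counting; IC50 came from a 4-parameter fit.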

T1 sequence (Q06187 whole entry): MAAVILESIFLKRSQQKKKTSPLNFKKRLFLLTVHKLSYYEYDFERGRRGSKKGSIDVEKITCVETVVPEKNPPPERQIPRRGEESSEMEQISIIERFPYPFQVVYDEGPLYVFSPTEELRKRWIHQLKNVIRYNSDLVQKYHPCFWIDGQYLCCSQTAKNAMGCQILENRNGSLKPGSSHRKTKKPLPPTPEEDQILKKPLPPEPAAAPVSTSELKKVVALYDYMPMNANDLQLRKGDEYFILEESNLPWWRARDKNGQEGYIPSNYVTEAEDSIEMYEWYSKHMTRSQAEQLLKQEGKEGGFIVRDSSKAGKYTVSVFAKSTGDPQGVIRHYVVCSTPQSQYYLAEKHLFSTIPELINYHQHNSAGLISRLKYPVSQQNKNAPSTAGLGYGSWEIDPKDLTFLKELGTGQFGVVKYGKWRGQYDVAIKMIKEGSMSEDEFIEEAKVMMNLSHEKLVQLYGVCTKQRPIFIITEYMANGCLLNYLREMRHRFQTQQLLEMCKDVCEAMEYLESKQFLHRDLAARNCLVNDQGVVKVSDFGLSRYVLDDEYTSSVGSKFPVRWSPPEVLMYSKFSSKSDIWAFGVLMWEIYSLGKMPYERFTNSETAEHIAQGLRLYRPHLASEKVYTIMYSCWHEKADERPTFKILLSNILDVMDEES

Compound	IC50 [1]	IC50 [2]
CNc1c(N[C@H]2C[C@H](c3nc(-c4ccc(C(=O)Nc5cc(C(F)(F)F)ccn5)cc4)c4c(N)nccn43)C2)c(=O)c1=O [Example 113, 4-[8-amino-3-(trans-3-{[2-(methylamino)-3,4-dioxocyclobut-1-en-1-yl]amino}cyclobutyl)imidazo[1,5-a]pyrazin-1-yl]-N-[4-(trifluoromethyl)pyridin-2-yl]benzamide]	0.166 nM	2940 nM
Nc1nccn2c1c(-c1ccc(C(=O)Nc3cc(C(F)(F)F)ccn3)cc1)nc2[C@H]1C[C@H](Nc2c(NC3CC3)c(=O)c2=O)C1 [Example 114, 4-[8-amino-3-(trans-3-{[2-(cyclopropylamino)-3,4-dioxocyclobut-1-en-1-yl]amino}cyclobutyl)imidazo[1,5-a]pyrazin-1-yl]-N-[4-(trifluoromethyl)pyridin-2-yl]benzamide]	0.327 nM	925 nM
